Tests used:
Type in all cases: in vivo
[1] = test system: Abutilon theophrasti; assay: Greenhouse post-emergence (POST) herbicidal test on ABUTH; conditions: Abutilon theophrasti, post-emergence, 480 h
Procedure: (§1) The culture containers used were plastic pots containing loamy sand with approximately 3.0% of humus as substrate. The seeds of the test plants were sown separately for each species.
(§2) For the post-emergence treatment, the test plants were grown to a plant height of from 3 to 15 cm, depending on the plant habit, and only then treated with the active compounds which had been suspended or emulsified in water. To this end, the test plants were either sown directly, and grown in the same containers, or they were first grown separately as seedlings and transplanted into the test containers a few days prior to treatment.
(§3) Depending on the species, the plants were kept at 10-25° C. and 20-35° C., respectively.
(§4) The test period extended over 2 to 4 weeks. During this time, the plants were tended and their response to the individual treatments was evaluated.
(§5) Evaluation was carried out using a scale from 0 to 100. 100 means no emergence of the plants, or complete destruction of at least the above-ground parts, and 0 means no damage or normal course of growth. A good herbicidal activity is given at values of at least 70, and very good herbicidal activity is given at values of at least 85.
(§6) If not stated differently, the respective components A and B, and if appropriate, C were formulated as a 5% by weight strength emulsion concentrate and, with addition of the amount of solvent system, introduced into the spray liquor used for applying the active compound.
(§7) As indicated application was either post emergent (POST) at the respective growth stage (GS) of the weed (BBCH code), or pre-emergent (PRE). […]

[2] = test system: Euphorbia heterophylla; assay: Greenhouse post-emergence (POST) herbicidal test on EPHHL; conditions: Euphorbia heterophylla, post-emergence
Procedure: as §1, §2, §3, §4, §5, §6, §7

[3] = test system: Geranium pusillum; assay: Greenhouse post-emergence (POST) herbicidal test on GERPU; conditions: Geranium pusillum, post-emergence
Procedure: as §1, §2, §3, §4, §5, §6, §7

[4] = test system: Echinochloa crus-galli; assay: Greenhouse post-emergence (POST) herbicidal test on ECHCG; conditions: Echinochloa crus-galli, post-emergence
Procedure: as §1, §2, §3, §4, §5, §6, §7

[5] = test system: Digitaria sanguinalis; assay: Greenhouse post-emergence (POST) herbicidal test on DIGSA; conditions: Digitaria sanguinalis, post-emergence
Procedure: as §1, §2, §3, §4, §5, §6, §7

[6] = test system: Abutilon theophrasti; assay: Greenhouse pre-emergence (PRE) herbicidal test on ABUTH
Procedure: as §1
(§8) The containers were irrigated gently to promote germination and growth and subsequently covered with transparent plastic hoods until the plants had rooted.
as §3, §4, §5, §7

[7] = test system: Ambrosia artemisiifolia; assay: Greenhouse pre-emergence (PRE) herbicidal test on AMBEL; conditions: PRE, AMBEL, 20 DAT
Procedure: as §1, §8, §3, §4, §5, §7

[8] = test system: Euphorbia heterophylla; assay: Greenhouse pre-emergence (PRE) herbicidal test on EPHHL; conditions: Euphorbia heterophylla, pre-emergence
Procedure: as §1, §8, §3, §4, §5, §7

[9] = test system: Alopecurus myosuroides; assay: Greenhouse pre-emergence (PRE) herbicidal test on ALOMY; conditions: Alopecurus myosuroides, pre-emergence
Procedure: as §1, §8, §3, §4, §5, §7

[10] = test system: Setaria viridis; assay: Greenhouse pre-emergence (PRE) herbicidal test on SETVI; conditions: PRE, SETVI, 20 DAT
Text: as §1
For the pre-emergence treatment, the active compounds, suspended or emulsified in water, were applied directly after sowing by means of finely distributing nozzles. The containers were irrigated gently to promote germination and growth and subsequently covered with transparent plastic hoods until the plants had rooted. This cover caused uniform germination of the test plants unless this was adversely affected by the active compounds.
as §3, §4, §5, §6, §7

[11] = test system: Lolium multiflorum; assay: Greenhouse pre-emergence (PRE) herbicidal test on LOLMU; conditions: Lolium multiflorum, pre-emergence
Procedure: as §1, §8, §3, §4, §5, §7

[12] = test system: Amaranthus retroflexus; assay: Greenhouse post-emergence (POST) herbicidal test on AMARE; conditions: Amaranthus retroflexus, post-emergence, 432 h, read-out: % activity
Procedure: as §1, §2, §3, §4, §5, §6, §7

[13] = test system: Echinochloa crus-galli; assay: Greenhouse pre-emergence (PRE) herbicidal test on ECHCG; conditions: Echinochloa crus-galli, pre-emergence, 432 h, read-out: % activity
Procedure: as §1, §8, §3, §4, §5, §7

[14] = test system: Commelina benghalensis; assay: Greenhouse pre-emergence (PRE) herbicidal test on COMBE
Procedure: as §1, §8, §3, §4, §5, §7

CP(=O)(O)CCC(N)C(=O)O (centres unmarked) [Glufosinate-Ammonium, glufosinate-ammonium]
inhibition at 75 g/ha ([1]; read-out: % activity): 30% | inhibition at 150 g/ha ([2]; 480 h, read-out: % activity): 45% | inhibition at 75 g/ha ([3]; 480 h, read-out: % activity): 35% | inhibition at 75 g/ha ([4]; 480 h, read-out: % activity): 0% | inhibition at 150 g/ha ([4]; 480 h, read-out: % activity): 30% | inhibition at 150 g/ha ([5]; 480 h, read-out: % activity): 95%

C#CCN1C(=O)COc2cc(F)c(N3C(=O)C4=C(CCCC4)C3=O)cc21 [Flumioxazin, flumioxazin]
inhibition at 2 g/ha ([1]; POST, ABUTH, use rate 2 gai/ha, 20 DAT, read-out: solo application % activity): 70% | inhibition at 1 g/ha ([2]; 480 h, POST, EPHHL, use rate 1 gai/ha, 20 DAT, read-out: solo application % activity): 60% | inhibition at 2 g/ha ([3]; 480 h, POST, GERPU, use rate 2 gai/ha, 20 DAT, read-out: solo application % activity): 45% | inhibition at […] ([6]; Abutilon theophrasti, pre-emergence, 480 h, PRE, ABUTH, use rate 0.25 gai/ha, 20 DAT, read-out: solo application % activity): 0% | inhibition at 0.5 g/ha ([6]; Abutilon theophrasti, pre-emergence, 480 h, PRE, ABUTH, use rate 0.5 gai/ha, 20 DAT, read-out: solo application % activity): 0% | inhibition at 1 g/ha ([6]; Abutilon theophrasti, pre-emergence, 480 h, PRE, ABUTH, use rate 1 gai/ha, 20 DAT, read-out: solo application % activity): 0% | inhibition at 0.5 g/ha ([7]; Ambrosia artemisiifolia, pre-emergence, 480 h, use rate 0.5 gai/ha, read-out: solo application % activity): 0% | inhibition at 2 g/ha ([7]; Ambrosia artemisiifolia, pre-emergence, 480 h, use rate 2 gai/ha, read-out: solo application % activity): 0% | inhibition at 0.5 g/ha ([4]; 480 h, POST, ECHCG, use rate 0.5 gai/ha, 20 DAT, read-out: solo application % activity): 0% | inhibition at 1 g/ha ([4]; 480 h, POST, ECHCG, use rate 1 gai/ha, 20 DAT, read-out: solo application % activity): 5% | inhibition at 2 g/ha ([4]; 480 h, POST, ECHCG, use rate 2 gai/ha, 20 DAT, read-out: solo application % activity): 30% | inhibition at 1 g/ha ([5]; 480 h, POST, DIGSA, use rate 1 gai/ha, 20 DAT, read-out: solo application % activity): 10% | inhibition at 2 g/ha ([5]; 480 h, POST, DIGSA, use rate 2 gai/ha, 20 DAT, read-out: solo application % activity): 25% | inhibition at […] ([8]; 480 h, PRE, EPHHL, use rate 0.25 gai/ha, 20 DAT, read-out: solo application % activity): 0% | inhibition at 0.5 g/ha ([8]; 480 h, PRE, EPHHL, use rate 0.5 gai/ha, 20 DAT, read-out: solo application % activity): 5% | inhibition at 1 g/ha ([8]; 480 h, PRE, EPHHL, use rate 1 gai/ha, 20 DAT, read-out: solo application % activity): 5% | inhibition at 2 g/ha ([8]; 480 h, PRE, EPHHL, use rate 2 gai/ha, 20 DAT, read-out: solo application % activity): 10% | inhibition at […] ([9]; 480 h, PRE, ALOMY, use rate 0.25 gai/ha, 20 DAT, read-out: solo application % activity): 0% | inhibition at 0.5 g/ha ([9]; 480 h, PRE, ALOMY, use rate 0.5 gai/ha, 20 DAT, read-out: solo application % activity): 0% | inhibition at 0.5 g/ha ([10]; Setaria viridis, pre-emergence, 480 h, use rate 0.5 gai/ha, read-out: solo application % activity): 0% | inhibition at 1 g/ha ([10]; Setaria viridis, pre-emergence, 480 h, use rate 1 gai/ha, read-out: solo application % activity): 0% | inhibition at 2 g/ha ([10]; Setaria viridis, pre-emergence, 480 h, use rate 2 gai/ha, read-out: solo application % activity): 0% | inhibition at 0.5 g/ha ([11]; 480 h, PRE, LOLMU, use rate 0.5 gai/ha, 20 DAT, read-out: solo application % activity): 0%

N#Cc1cc(Br)c(O)c(Br)c1 [Bromoxynil, bromoxynil]
pest or weed control at 30 g/ha ([2]; 432 h, read-out: % activity): 70% | pest or weed control at 30 g/ha ([3]; 432 h, read-out: % activity): 5% | pest or weed control at 120 g/ha ([3]; 432 h, read-out: % activity): 20% | pest or weed control at 30 g/ha [12]: 0% | pest or weed control at 120 g/ha ([6]; Abutilon theophrasti, pre-emergence, 432 h, read-out: % activity): 0% | pest or weed control at 30 g/ha [13]: 0% | pest or weed control at 120 g/ha [13]: 0% | pest or weed control at 30 g/ha ([4]; 432 h, read-out: % activity): 0% | pest or weed control at 30 g/ha ([5]; 432 h, read-out: % activity): 0% | pest or weed control at 120 g/ha ([5]; 432 h, read-out: % activity): 15% | pest or weed control at 30 g/ha ([8]; 432 h, read-out: % activity): 0% | pest or weed control at 30 g/ha ([9]; 432 h, read-out: % activity): 0% | pest or weed control at 120 g/ha ([9]; 432 h, read-out: % activity): 0% | pest or weed control at 30 g/ha ([14]; Commelina benghalensis, pre-emergence, 432 h, read-out: % activity): 0% | pest or weed control at 30 g/ha ([11]; 432 h, read-out: % activity): 0% | pest or weed control at 120 g/ha ([11]; 432 h, read-out: % activity): 0%

COc1cc(OC)n2nc(NS(=O)(=O)c3c(C(F)(F)F)ccnc3OC)nc2n1 [Pyroxsulam, pyroxsulam]
% activity ([6]; PRE, ABUTH, Pyroxsulam solo 0.25 gai/ha, 20 DAT): 0% | % activity ([6]; PRE, ABUTH, Pyroxsulam solo 0.5 gai/ha, 20 DAT): 5% | % activity ([7]; Pyroxsulam solo 0.25 gai/ha): 15% | % activity ([14]; PRE, COMBE, Pyroxsulam solo 0.25 gai/ha, 20 DAT): 10% | % activity ([10]; Pyroxsulam solo 0.25 gai/ha): 10%

Reference: patent US20260007133A1, “HERBICIDAL COMPOSITION COMPRISING AZINE COMPOUNDS” (BASF SE, priority 2022, published 2026)
